Experimental data from patent US9656955B2, “Pyrrolidine derivatives, pharmaceutical compositions containing them, and their use in therapy” (AbbVie Deutschland GmbH & Co. KG, priority 2013, dated 2017).
pKi: −log10 of the molar value.

Biological target: human GlyT1c transporter (Homo sapiens (Human), UniProt P48067)
Assay: Radioligand binding assays using recombinant CHO cell membranes expressing human GlyT1
Details: radioligand binding, human GlyT1c transporter-expressing CHO cell membranes

Sequence of human GlyT1c transporter (P48067 whole entry): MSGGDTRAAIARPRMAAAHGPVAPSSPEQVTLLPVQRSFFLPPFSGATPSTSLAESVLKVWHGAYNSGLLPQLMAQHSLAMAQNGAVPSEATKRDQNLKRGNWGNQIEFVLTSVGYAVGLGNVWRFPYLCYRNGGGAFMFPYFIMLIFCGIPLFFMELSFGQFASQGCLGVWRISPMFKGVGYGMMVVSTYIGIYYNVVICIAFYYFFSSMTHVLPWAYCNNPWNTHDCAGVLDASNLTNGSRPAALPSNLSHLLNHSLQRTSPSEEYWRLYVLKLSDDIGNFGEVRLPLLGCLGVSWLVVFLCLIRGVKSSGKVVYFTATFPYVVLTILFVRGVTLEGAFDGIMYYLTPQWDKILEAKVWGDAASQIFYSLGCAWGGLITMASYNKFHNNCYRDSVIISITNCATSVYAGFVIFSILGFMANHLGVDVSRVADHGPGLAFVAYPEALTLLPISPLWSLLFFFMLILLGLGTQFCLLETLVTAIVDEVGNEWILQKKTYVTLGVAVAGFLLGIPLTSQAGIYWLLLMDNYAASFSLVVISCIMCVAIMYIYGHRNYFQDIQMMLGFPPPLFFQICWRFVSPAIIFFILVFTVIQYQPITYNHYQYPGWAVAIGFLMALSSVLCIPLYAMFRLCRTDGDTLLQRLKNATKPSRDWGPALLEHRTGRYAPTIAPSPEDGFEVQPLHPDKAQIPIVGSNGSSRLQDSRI

| SMILES | pKi |
| --- | --- |
| Cn1cnc(S(=O)(=O)N2C[C@H](NCc3nc(-c4ccc(F)cc4)cs3)[C@@H](c3ccccc3)C2)c1 [Example 460, (3R,4S)—N-{[4-(4-fluorophenyl)-1,3-thiazol-2-yl]methyl}-1-[(1-methyl-1H-imidazol-4-yl)sulfonyl]-4-phenylpyrrolidin-3-amine] | ≥ 5.00 |
| Cc1ccc(CN[C@H]2CN(S(=O)(=O)c3cn(C)cn3)C[C@@H]2c2ccccc2)s1 [Example 462, (3R,4S)-1-[(1-methyl-1H-imidazol-4-yl)sulfonyl]-N-[(5-methylthiophen-2-yl)methyl]-4-phenylpyrrolidin-3-amine] | ≥ 7.00 |
| Cn1cc(S(=O)(=O)N2CC(Nc3ccc(F)c(F)c3)C(c3ccccc3)C2)c(C(F)(F)F)n1 (stereo not shown) [Example 476, N-(3,4-difluorophenyl)-1-{[1-methyl-3-(trifluoromethyl)-1H-pyrazol-4-yl]sulfonyl}-4-phenylpyrrolidin-3-amine] | ≥ 5.00 |
| CC1(C)C(=O)Nc2ccc(S(=O)(=O)N3CC(Nc4ccc(F)c(F)c4)C(c4ccccc4)C3)cc21 (stereo not shown) [Example 478, 5-({3-[(3,4-difluorophenyl)amino]-4-phenylpyrrolidin-1-yl}sulfonyl)-3,3-dimethyl-1,3-dihydro-2H-indol-2-one] | ≥ 5.00 |
| Cc1nn(C2CCCC2)cc1S(=O)(=O)N1CC(Nc2ccc(F)c(F)c2)C(c2ccccc2)C1 (stereo not shown) [Example 479, 1-[(1-cyclopentyl-3-methyl-1H-pyrazol-4-yl)sulfonyl]-N-(3,4-difluorophenyl)-4-phenylpyrrolidin-3-amine] | < 5.00 |
| Cc1cc(S(=O)(=O)N2CC(Nc3ccc(F)c(F)c3)C(c3ccccc3)C2)n(C)n1 (stereo not shown) [Example 482, N-(3,4-difluorophenyl)-1-[(1,3-dimethyl-1H-pyrazol-5-yl)sulfonyl]-4-phenylpyrrolidin-3-amine] | ≥ 5.00 |
| Cc1cc(S(=O)(=O)N2CC(Nc3ccc(F)c(F)c3)C(c3ccccc3)C2)c(C)o1 (stereo not shown) [Example 488, N-(3,4-difluorophenyl)-1-[(2,5-dimethylfuran-3-yl)sulfonyl]-4-phenylpyrrolidin-3-amine] | ≥ 5.00 |
| COC(=O)c1sccc1S(=O)(=O)N1CC(Nc2ccc(F)c(F)c2)C(c2ccccc2)C1 (stereo not shown) [Example 489, methyl 3-({3-[(3,4-difluorophenyl)amino]-4-phenylpyrrolidin-1-yl}sulfonyl)thiophene-2-carboxylate] | ≥ 5.00 |
| Cn1ccc(S(=O)(=O)N2CC(Nc3ccc(F)c(F)c3)C(c3ccccc3)C2)n1 (stereo not shown) [Example 502, N-(3,4-difluorophenyl)-1-[(1-methyl-1H-pyrazol-3-yl)sulfonyl]-4-phenylpyrrolidin-3-amine] | ≥ 5.00 |
| COC(=O)c1ccc(S(=O)(=O)N2CC(Nc3ccc(F)c(F)c3)C(c3ccccc3)C2)n1C (stereo not shown) [Example 504, methyl 5-({3-[(3,4-difluorophenyl)amino]-4-phenylpyrrolidin-1-yl}sulfonyl)-1-methyl-1H-pyrrole-2-carboxylate] | ≥ 5.00 |
| Cc1nn(C)c(C)c1S(=O)(=O)N1CC(Nc2ccc(F)c(F)c2)C(c2ccccc2)C1 (stereo not shown) [Example 508, N-(3,4-difluorophenyl)-4-phenyl-1-[(1,3,5-trimethyl-1H-pyrazol-4-yl)sulfonyl]pyrrolidin-3-amine] | ≥ 5.00 |
| O=S(=O)(C1CCC1)N1CC(Nc2ccc(F)c(F)c2)C(c2ccccc2)C1 (stereo not shown) [Example 509, 1-(cyclobutylsulfonyl)-N-(3,4-difluorophenyl)-4-phenylpyrrolidin-3-amine] | ≥ 5.00 |
| O=S(=O)(c1ccc(Cl)s1)N1CC(Nc2ccc(F)c(F)c2)C(c2ccccc2)C1 (stereo not shown) [Example 511, 1-[(5-chlorothiophen-2-yl)sulfonyl]-N-(3,4-difluorophenyl)-4-phenylpyrrolidin-3-amine] | ≥ 5.00 |
| Cn1nccc1S(=O)(=O)N1CC(Nc2ccc(F)c(F)c2)C(c2ccccc2)C1 (stereo not shown) [Example 516, N-(3,4-difluorophenyl)-1-[(1-methyl-1H-pyrazol-5-yl)sulfonyl]-4-phenylpyrrolidin-3-amine] | ≥ 5.00 |
| Cn1cnc(S(=O)(=O)N2C[C@H](Nc3ccc(Cl)c(C(F)(F)F)c3)[C@@H](c3ccc(F)cc3)C2)c1 [Example 540, (3R,4S)—N-[4-chloro-3-(trifluoromethyl)phenyl]-4-(4-fluorophenyl)-1-[(1-methyl-1H-imidazol-4-yl)sulfonyl]pyrrolidin-3-amine] | ≥ 7.00 |
| CC(C)COC(=O)N[C@H]1CN(S(=O)(=O)c2cn(C)cn2)C[C@@H]1c1ccccc1 [Example 543, 2-methylpropyl {(3R,4S)-1-[(1-methyl-1H-imidazol-4-yl)sulfonyl]-4-phenylpyrrolidin-3-yl}carbamate] | ≥ 5.00 |
| CCCCCCN[C@H]1CN(S(=O)(=O)c2cn(C)cn2)C[C@@H]1c1ccccc1 [Example 548, (3R,4S)—N-hexyl-1-[(1-methyl-1H-imidazol-4-yl)sulfonyl]-4-phenylpyrrolidin-3-amine] | ≥ 8.00 |
| Cn1cnc(S(=O)(=O)N2C[C@H](NCC3CCOC(C)(C)C3)[C@@H](c3ccccc3)C2)c1 (stereo partly drawn) [Example 557, (3R,4S)—N-[(2,2-dimethyltetrahydro-2H-pyran-4-yl)methyl]-1-[(1-methyl-1H-imidazol-4-yl)sulfonyl]-4-phenylpyrrolidin-3-amine] | ≥ 5.00 |
| Cn1cnc(S(=O)(=O)N2C[C@H](NCc3cccc4cncn34)[C@@H](c3ccccc3)C2)c1 [Example 560, (3R,4S)—N-(imidazo[1,5-a]pyridin-5-ylmethyl)-1-[(1-methyl-1H-imidazol-4-yl)sulfonyl]-4-phenylpyrrolidin-3-amine] | ≤ 5.00 |
| Cn1cnc(S(=O)(=O)N2C[C@H](NCc3csc(Cl)n3)[C@@H](c3ccccc3)C2)c1 [Example 562, (3R,4S)—N-[(2-chloro-1,3-thiazol-4-yl)methyl]-1-[(1-methyl-1H-imidazol-4-yl)sulfonyl]-4-phenylpyrrolidin-3-amine] | ≥ 5.00 |
| Cc1cccc2ncc(CN[C@H]3CN(S(=O)(=O)c4cn(C)cn4)C[C@@H]3c3ccccc3)n12 [Example 563, (3R,4S)-1-[(1-methyl-1H-imidazol-4-yl)sulfonyl]-N-[(5-methylimidazo[1,2-a]pyridin-3-yl)methyl]-4-phenylpyrrolidin-3-amine] | ≥ 5.00 |
| Cn1cnc(S(=O)(=O)N2C[C@H](NCCCC3CC3)[C@@H](c3ccccc3)C2)c1 [Example 573, (3R,4S)—N-(3-cyclopropylpropyl)-1-[(1-methyl-1H-imidazol-4-yl)sulfonyl]-4-phenylpyrrolidin-3-amine] | ≥ 7.00 |
| Cc1cc(N[C@H]2CN(S(=O)(=O)c3cn(C)cn3)C[C@@H]2c2ccccc2)ncc1F [Example 574, 5-fluoro-4-methyl-N-{(3R,4S)-1-[(1-methyl-1H-imidazol-4-yl)sulfonyl]-4-phenylpyrrolidin-3-yl}pyridin-2-amine] | ≥ 7.00 |
| CC(C)OCCCNC(=O)[C@@H]1CN(S(=O)(=O)c2cn(C)cn2)C[C@H]1c1ccc(F)cc1 [Example 577, (3S,4R)-4-(4-fluorophenyl)-1-[(1-methyl-1H-imidazol-4-yl)sulfonyl]-N-[3-(propan-2-yloxy)propyl]pyrrolidine-3-carboxamide] | < 5.00 |
| CCCCNC(=O)[C@@H]1CN(S(=O)(=O)c2cn(C)cn2)C[C@H]1c1ccc(F)cc1 [Example 581, (3S,4R)—N-butyl-4-(4-fluorophenyl)-1-[(1-methyl-1H-imidazol-4-yl)sulfonyl]pyrrolidine-3-carboxamide] | ≥ 7.00 |
